test system: rabbit skeletal myofibrils (fast skeletal myofibrils); assay: Activation of fast skeletal myofibrils (PUMA assay, AC1.4); type: biochemical; conditions: calcium at pCa25, AC1.4 = concentration at which the compound increased the enzymatic activity
Procedure, shortened: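 In 12 mM PIPES pH 6.8 with 2 mM MgCl2 and 1 mM DTT, Triton-washed rabbit skeletal myofibrils were run at the pCa25 calcium level. Myosin-made ADP was recycled through a PK/LDH coupled system; NADH loss read at 340 nm.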

SMILES | AC1.4 [µM]
CC[C@H](C)[C@H]1C(=O)Nc2ccccc2CN1/C(N)=N/C(C)=O [Compound 113, N-((E)-amino((S)-3-((S)-sec-butyl)-2-oxo-1,2,3,5-tetrahydro-2H-benzo[e][1,4]diazepin-4-yl)methylene)acetamide] | 0.15
CC[C@H](C)[C@H]1C(=O)Nc2ccccc2CN1c1ncccn1 [Compound 114, (S)-3-((S)-sec-butyl)-4-(pyrimidin-2-yl)-1,3,4,5-tetrahydro-2H-benzo[e][1,4]diazepin-2-one] | 0.05
CC[C@H](C)[C@H]1C(=O)Nc2ccccc2CN1c1cc(=O)n(C)cn1 [Compound 115, (S)-3-((S)-sec-butyl)-4-(1-methyl-6-oxo-1,6-dihydropyrimidin-4-yl)-1,3,4,5-tetrahydro-2H-benzo[e][1,4]diazepin-2-one] | 0.08
CC[C@H](C)[C@H]1C(=O)Nc2ccccc2CN1c1nc(OC)cc(OC)n1 [Compound 116, (S)-3-((S)-sec-butyl)-4-(4,6-dimethoxypyrimidin-2-yl)-1,3,4,5-tetrahydro-2H-benzo[e][1,4]diazepin-2-one] | 0.05
CC[C@H](C)[C@H]1C(=O)Nc2ccccc2CN1c1nc(N)nn1C [Compound 117, (S)-4-(3-amino-1-methyl-1H-1,2,4-triazol-5-yl)-3-((S)-sec-butyl)-1,3,4,5-tetrahydro-2H-benzo[e][1,4]diazepin-2-one] | 0.07
CC[C@H](C)[C@H]1C(=O)Nc2ccccc2CN1c1nc(N)n(C)n1 [Compound 118, (S)-4-(5-amino-1-methyl-1H-1,2,4-triazol-3-yl)-3-((S)-sec-butyl)-1,3,4,5-tetrahydro-2H-benzo[e][1,4]diazepin-2-one] | 0.08
CC[C@H](C)[C@H]1C(=O)Nc2ccccc2CN1S(=O)(=O)CCOC [Compound 119, (S)-3-((S)-sec-butyl)-4-((2-methoxyethyl)sulfonyl)-1,3,4,5-tetrahydro-2H-benzo[e][1,4]diazepin-2-one] | 2.44
CC[C@H](C)[C@H]1C(=O)Nc2ccccc2CN1S(=O)(=O)NC [Compound 120, (S)-3-((S)-sec-butyl)-N-methyl-2-oxo-1,2,3,5-tetrahydro-4H-benzo[e][1,4]diazepine-4-sulfonamide] | 0.12
NC(=O)N1Cc2ccccc2NC(=O)[C@@H]1C1CCC1 [Compound 121, (S)-3-cyclobutyl-2-oxo-1,2,3,5-tetrahydro-4H-benzo[e][1,4]diazepine-4-carboxamide] | 4.80
Cn1cc(C(=O)N2Cc3ccccc3NC(=O)[C@@H]2C2CCC2)cn1 [Compound 122, (S)-3-cyclobutyl-4-(1-methyl-1H-pyrazole-4-carbonyl)-1,3,4,5-tetrahydro-2H-benzo[e][1,4]diazepin-2-one] | 3.16
NC(=O)N1Cc2ccccc2NC(=O)[C@@H]1C1CCCC1 [Compound 123, (S)-3-cyclopentyl-2-oxo-1,2,3,5-tetrahydro-4H-benzo[e][1,4]diazepine-4-carboxamide] | 0.35
O=C1Nc2ccccc2CN(C(=O)CCO)[C@H]1C1CCCCC1 [Compound 124, (S)-3-cyclohexyl-4-(3-hydroxypropanoyl)-1,3,4,5-tetrahydro-2H-benzo[e][1,4]diazepin-2-one] | 0.38
NC(=O)c1ccc(C(=O)N2Cc3ccccc3NC(=O)[C@@H]2C2CCCCC2)cc1 [Compound 125, (S)-4-(3-cyclohexyl-2-oxo-2,3,4,5-tetrahydro-1H-benzo[e][1,4]diazepine-4-carbonyl)benzamide] | 0.29
O=C1Nc2ccccc2CN(C(=O)c2ccco2)[C@H]1C1CCCCC1 [Compound 128, (S)-3-cyclohexyl-4-(furan-2-carbonyl)-1,3,4,5-tetrahydro-2H-benzo[e][1,4]diazepin-2-one] | 0.06
CCC(CC)[C@H]1C(=O)Nc2ccccc2CN1C(N)=O [Compound 129, (S)-2-oxo-3-(pentan-3-yl)-1,2,3,5-tetrahydro-4H-benzo[e][1,4]diazepine-4-carboxamide] | 0.10
CC[C@H](C)[C@H]1C(=O)Nc2ccccc2CN1c1c(NC)c(=O)c1=O [Compound 130, 3-((S)-3-((S)-sec-butyl)-2-oxo-1,2,3,5-tetrahydro-4H-benzo[e][1,4]diazepin-4-yl)-4-(methylamino)cyclobut-3-ene-1,2-dione] | 0.06
CC[C@H](C)[C@H]1C(=O)Nc2ccccc2CN1c1c(N(C)C)c(=O)c1=O [Compound 131, 3-((S)-3-((S)-sec-butyl)-2-oxo-1,2,3,5-tetrahydro-4H-benzo[e][1,4]diazepin-4-yl)-4-(dimethylamino)cyclobut-3-ene-1,2-dione] | 0.02
CC[C@H](C)[C@H]1C(=O)Nc2ccccc2CN1c1c(NCCO)c(=O)c1=O [Compound 132, 3-((S)-3-((S)-sec-butyl)-2-oxo-1,2,3,5-tetrahydro-4H-benzo[e][1,4]diazepin-4-yl)-4-((2-hydroxyethyl)amino)cyclobut-3-ene-1,2-dione] | 0.07

SMILES | AC1.4 [µM]
CC[C@H](C)[C@H]1C(=O)Nc2ccccc2CN1C(=O)N(C)CCN(C)C [Compound 133, (S)-3-((S)-sec-butyl)-N-(2-(dimethylamino)ethyl)-N-methyl-2-oxo-1,2,3,5-tetrahydro-4H-benzo[e][1,4]diazepine-4-carboxamide] | 0.48
CC[C@H](C)[C@H]1C(=O)Nc2ccccc2CN1C(=O)N1CCC(O)CC1 [Compound 134, (S)-3-((S)-sec-butyl)-4-(4-hydroxypiperidine-1-carbonyl)-1,3,4,5-tetrahydro-2H-benzo[e][1,4]diazepin-2-one] | 0.71
CC[C@H](C)[C@H]1C(=O)Nc2ccccc2CN1C(=O)N(CCO)C(C)C [Compound 135, (S)-3-((S)-sec-butyl)-N-(2-hydroxyethyl)-N-isopropyl-2-oxo-1,2,3,5-tetrahydro-4H-benzo[e][1,4]diazepine-4-carboxamide] | 3.72
CC[C@H](C)[C@H]1C(=O)Nc2ccccc2CN1C(=O)N1C[C@@H](O)[C@@H](O)C1 [Compound 137, (S)-3-((S)-sec-butyl)-4-((3R,4S)-3,4-dihydroxypyrrolidine-1-carbonyl)-1,3,4,5-tetrahydro-2H-benzo[e][1,4]diazepin-2-one] | 3.35
CC[C@H](C)[C@H]1C(=O)Nc2ccccc2CN1C(=O)NC1CN(C)C1 [Compound 138, (S)-3-((S)-sec-butyl)-N-(1-methylazetidin-3-yl)-2-oxo-1,2,3,5-tetrahydro-4H-benzo[e][1,4]diazepine-4-carboxamide] | 0.52
CC[C@H](C)[C@H]1C(=O)Nc2ccccc2CN1C(=O)NC1CN(C2COC2)C1 [Compound 139, (S)-3-((S)-sec-butyl)-N-(1-(oxetan-3-yl)azetidin-3-yl)-2-oxo-1,2,3,5-tetrahydro-4H-benzo[e][1,4]diazepine-4-carboxamide] | 0.93
CC[C@H](C)[C@H]1C(=O)Nc2ccccc2CN1C(=O)N1C[C@@H](O)[C@H](O)C1 [Compound 140, (S)-3-((S)-sec-butyl)-4-((3R,4R)-3,4-dihydroxypyrrolidine-1-carbonyl)-1,3,4,5-tetrahydro-2H-benzo[e][1,4]diazepin-2-one] | 4.74
CC[C@H](C)[C@H]1C(=O)Nc2ccccc2CN1C(=O)N[C@H]1CCN(CCO)C1 [Compound 141, (S)-3-((S)-sec-butyl)-N-((S)-1-(2-hydroxyethyl)pyrrolidin-3-yl)-2-oxo-1,2,3,5-tetrahydro-4H-benzo[e][1,4]diazepine-4-carboxamide] | 0.54
CC[C@H](C)[C@H]1C(=O)Nc2ccccc2CN1C(=O)NC1CCNCC1 [Compound 142, (S)-3-((S)-sec-butyl)-2-oxo-N-(piperidin-4-yl)-1,2,3,5-tetrahydro-4H-benzo[e][1,4]diazepine-4-carboxamide] | 0.36
CC[C@H](C)[C@H]1C(=O)Nc2ccccc2CN1C(=O)N[C@@H]1CCN(C)C1 [Compound 143, (S)-3-((S)-sec-butyl)-N-((R)-1-methylpyrrolidin-3-yl)-2-oxo-1,2,3,5-tetrahydro-4H-benzo[e][1,4]diazepine-4-carboxamide] | 0.35
CC[C@H](C)[C@H]1C(=O)Nc2ccccc2CN1C#N [Compound 145, (S)-3-((S)-sec-butyl)-2-oxo-1,2,3,5-tetrahydro-4H-benzo[e][1,4]diazepine-4-carbonitrile] | 0.50
CC[C@H](C)[C@H]1C(=O)Nc2ccccc2CN1C(=N)NO [Compound 146, (S)-3-((S)-sec-butyl)-N-hydroxy-2-oxo-1,2,3,5-tetrahydro-4H-benzo[e][1,4]diazepine-4-carboximidamide] | 0.30
CC[C@H](C)[C@H]1C(=O)Nc2ccccc2CN1C(=O)C(C)(C)C(N)=O [Compound 147, 3-((S)-3-((S)-sec-butyl)-2-oxo-1,2,3,5-tetrahydro-4H-benzo[e][1,4]diazepin-4-yl)-2,2-dimethyl-3-oxopropanamide] | 2.57
CC[C@H](C)[C@H]1C(=O)Nc2ccccc2CN1C(=O)C1CC(=O)N(C)C1 (stereo partly drawn) [Compound 148] | 0.98
CC[C@H](C)[C@H]1C(=O)Nc2ccccc2CN1C(=O)CC(C)(C)O [Compound 149] | 2.08
CC[C@H](C)[C@H]1C(=O)Nc2ccccc2CN1C(=O)c1cc2ncccc2[nH]1 [Compound 150, (S)-3-((S)-sec-butyl)-4-(1H-pyrrolo[3,2-b]pyridine-2-carbonyl)-1,3,4,5-tetrahydro-2H-benzo[e][1,4]diazepin-2-one] | 0.03
CC[C@H](C)[C@H]1C(=O)Nc2ccccc2CN1C(=O)c1cc2ccncc2[nH]1 [Compound 151, (S)-3-((S)-sec-butyl)-4-(1H-pyrrolo[2,3-c]pyridine-2-carbonyl)-1,3,4,5-tetrahydro-2H-benzo[e][1,4]diazepin-2-one] | 0.06
CC[C@H](C)[C@H]1C(=O)Nc2ccccc2CN1C(=O)c1ncn[nH]1 [Compound 152, (S)-3-((S)-sec-butyl)-4-(1H-1,2,4-triazole-5-carbonyl)-1,3,4,5-tetrahydro-2H-benzo[e][1,4]diazepin-2-one] | 0.07

— patent US12441691B2 (Cytokinetics, Inc., priority 2020, dated 2025)
